From patent publication US6013665A, “Method for enhancing the absorption and transport of lipid soluble compounds using structured glycerides” (Abbott Laboratories, priority 1997, dated 2000)
Like-named read-outs stand apart in the source and are kept apart here. One block for each compound: values may come before it.

Key:
[1] = cited from earlier work
[2] = rat, in vivo
Experimental: (§1) The results set forth in FIGS. 1-4 are statistically significant at p<0.01 (see *). A two way analysis of variance model was employed for each treatment, lipid type and their interaction effects in the model were used to compare the area under each curve. Models were extended to included contrast statements comparing the physical mix and the structured triglyceride within each treatment group.
(§2) This experiment was conducted to determine if a structured glyceride consisting of a co-randomized MCT/fish oil would enhance the absorption of lipophilic compounds such as vitamin E (tocopherol) and retinol (vitamin A) using a lymph fistula rat model based upon a procedure described by Fujimoto et al., "Effect of Ischemia-Reperfusion on Lipid Digestion and Absorption in Rat Intestine", Am. J. Physiol., 260: G595-G602 (1991), the entire teaching of which is hereby incorporated by reference. This model was designed to represent fat absorption mode of the healthy intestinal tract (i.e., not compromised through disease or ischemic event). The lymph fistula rat model is extremely accurate in measuring and quantitating lipid absorption.
(§3) The physical mix (Part A)and structured triglyceride component (Part B) of Example 1 were used. […].
(§4) Male Sprague Dawley rats weighing between 280 and 330 grams were all fed a normal Purina Rat Chow for one week. Rats were fasted overnight prior to surgery and under anesthesia, a laparotomy was performed, the intestinal lymph duct was cannulated according to the procedure of Tso et al., "The Absorption of Lipid and Lipoprotein Synthesis", Lipid Research Methodology, Chapter 5: 191-216 (1984) Alan R. Liss, Inc., N.Y., N.Y, the entire teaching of which is hereby incorportated by reference. […] A silicon infusion tube (1.6 mm OD) was placed in the stomach for infusion of saline, structured lipid/lipophilic compound or emulsified physical mix/lipophilic compound. The fundic incision was closed by a purse string suture. The animals were allowed to recover for 24 hours before experimental oil/lipophilic compound infusion began.
(§5) Animals were randomly assigned to two groups in this non-injury model. […].
(§6) Lymph was collected in pre-cooled tubes beginning hourly for eight (8) hours after initiation of lipid infusion. At the end of the lipid infusion, the animals were sacrificed by exsanguination.
(§7) Radioactivity was measured in an aqueous miscible scintillant (Poly-Fluor, Packard, Downers Grove, Ill.). Samples were counted for 10 minutes in a liquid scintillation spectrophotometer (LKB Model 1209, Pharmacia, Inc.). Samples were corrected for quenching by reference to a series of ^14 C and ^3 H standards that were progressively quenched.
This experiment was conducted in a manner similar to Example 2 except that the ischemic/reperfusion injury model was used. This model was used to simulate the lipid malabsorption conditions associated with diseases such as Short Bowel Syndrome, Crohn's disease and the like. Animals were divided into two groups and given the physical mix (Group A) or the structured triglyceride component (Group B) of Example 2.

[3] = parameters: species or system Male Sprague Dawley rats; conditions: rat, in vivo
Experimental: as §1, §2, §3, §4, §5, §6, §7
Lymph lipids were extracted and the methyl ester derivatives of the fatty acids were analyzed using a Hewlett Packard Gas Chromatograph, Model 5890A with a capillary column packed with 10% SP-2330 on 80/100 Supelcoport (Supelco, Inc., Bellefonte, Pa.).

[4] = cited from earlier work; remark: listed apart in the source
[5] = rat, in vivo; cited from earlier work
[6] = in vivo; cited from earlier work
[7] = in vivo; cited from earlier work; remark: listed apart in the source

Compound: CCCCCCCC/C=C\CCCCCCCC(=O)O [oleic acid]
absorption into the lymphatic system from an emulsion ([1]; rats with bile diversion, emulsion): well absorbed into the lymphatic system

amount of retinol to the lymphatic circulation, structured triglyceride component vs physical mixture, end of study (FIG. 3) [2]: more than twice the amount | lymphatic retinol absorption, structured triglyceride component vs physical mixture, initial 3 hour period (FIG. 3) [2]: about equal
Compound: CC1=C(/C=C/C(C)=C/C=C/C(C)=C/CO)C(C)(C)CCC1 [retinol]
retinol absorption, structured triglyceride component over physical mix, after about 3 hours (FIG. 3) [2]: enhancement in the retinol absorption over the physical mix | lymph tocopherol and retinol output with structured glyceride component versus physical mix [3]: increased rapidly and maintained a significantly higher output | lymphatic retinol absorption, structured triglyceride component vs physical mix (FIG. 1) [3]: increased the lymphatic absorption of retinol over the entire 8 hour study period

Compound: CCCCCCCC/C=C\CCCCCCCC(=O)OCC(COC(=O)CCCCCCC/C=C\CCCCCCCC)OC(=O)CCCCCCC/C=C\CCCCCCCC [triolein]
amount of lipid transported to the lymph ([4]; lymph fistula rat, same amount of fatty acid infused as triolein or phosphatidylcholine with vitamin E): similar

Compound: phosphatidylcholine
amount of lipid transported to the lymph ([4]; rat, in vivo): similar

higher lymph output of the lipophilic compound with structured triglyceride component compared to the corresponding physical mix [2]: ≥ 30% | tocopherol absorption, structured triglyceride component vs physical mix, initial 2 hour period (FIG. 4) [2]: essentially equal | higher lymph output of the lipophilic compound with structured triglyceride compared to the corresponding physical mix [3]: ≥ 30%
Compound: α-tocopherol
transport of vitamin E into lymph, phosphatidylcholine vs triglyceride infusion ([4]; rat, in vivo): significantly reduced | absorption into the lymphatic system from an emulsion ([1]; rat, in vivo): poorly absorbed from the emulsion | gastrointestinal absorption of lecithin-dispersed aqueous preparations of vitamin E with MCT [5]: significantly enhanced the absorption | lymphatic absorption of vitamin E from lecithin-dispersed aqueous preparations [5]: increase the lymphatic absorption of vitamin E | intestinal absorption of vitamin E with MCT [6]: enhancing effect of MCT on intestinal absorption of vitamin E | lymphatic tocopherol absorption, structured triglyceride vs physical mix, after about 2 hours (FIG. 4) [2]: significantly enhanced level of lymphatic tocopherol absorption | lymph tocopherol and retinol output with structured glyceride component versus physical mix [3]: increased rapidly and maintained a significantly higher output | lymphatic tocopherol absorption, structured glyceride component vs physical mix (FIG. 2) [3]: enhances the lymphatic absorption of tocopherol over the entire 8 hour study period | α-tocopherol absorption by rat small intestine with polyunsaturated fatty acids in bile salt micelles [7]: depress α-tocopherol absorption
